In brackets after ≈: the same amount, converted by molar mass. Like-named read-outs stand apart in the source and are kept apart here.
Tests used:
E. coli 25922 = test: MIC; assay type: cell-based; conditions: Escherichia coli
[1] = tested on: SA 2 (Staphylococcus aureus 2); test: MIC; assay type: cell-based
Protocol: (§1) The strains included Staphylococcus aureus, Methicillin Resistant (ATCC 33591), Methicillin-Resistant Staphylococcus aureus USA300, Staphylococcus aureus 158, Staphylococcus aureus 22, Staphylococcus aureus 2, Staphylococcus aureus (ATCC 29213), and Staphylococcus aureus 182.
(§2) A series of compounds were evaluated for their activity against drug resistant S. aureus, including MSSA and MRSA strains.

[2] = tested on: SA 22 (Staphylococcus aureus 22); test: MIC; assay type: cell-based
Protocol: as §1, §2

[3] = tested on: SA 29213 (Staphylococcus aureus (ATCC 29213)); test: MIC; assay type: cell-based
Protocol: as §1, §2

[4] = tested on: SA 33591 (Staphylococcus aureus, Methicillin Resistant (ATCC 33591)); test: MIC; assay type: cell-based
Protocol: as §1, §2

[5] = tested on: SA 158 (Staphylococcus aureus 158); test: MIC; assay type: cell-based
Protocol: as §1, §2

[6] = tested on: SA USA 300 (Methicillin-Resistant Staphylococcus aureus USA300); test: MIC; assay type: cell-based
Protocol: as §1, §2

[7] = tested on: SA 182 (Staphylococcus aureus 182); test: MIC; assay type: cell-based
Protocol: as §1, §2

K. pneumoniae 700603 = test: MIC; assay type: cell-based; conditions: Klebsiella pneumoniae
S. pneumoniae 149389 = test: MIC; assay type: cell-based; conditions: Streptococcus pneumoniae
Protocol: (§3) The compounds were re-tested against other bacteria, including Staphylococcus epidermidis (ATCC 35984), Staphylococcus epidermidis (MRSE), E. faecium 134529, E. faecium 145494, […], E. faecium 161651, S. pneumoniae 49619, and S. pneumoniae 149389.
as §2

S. pneumoniae 49619 = test: MIC; assay type: cell-based; conditions: Streptococcus pneumoniae
Protocol: as §3, §2

E. faecium 134529 = test: MIC; assay type: cell-based; conditions: Enterococcus faecium
Protocol: as §3, §2

E. faecium 145494 = test: MIC; assay type: cell-based; conditions: Enterococcus faecium
Protocol: as §3, §2

E. faecalis 161651 = test: MIC; assay type: cell-based; conditions: Enterococcus faecalis
Protocol: as §3, §2

S. epidermidis MRSE 01 = test: MIC; assay type: cell-based; conditions: Staphylococcus epidermidis
Protocol: as §3, §2

E. faecalis 29212 = test: MIC; assay type: cell-based; conditions: Enterococcus faecalis
Protocol: as §3, §2

S. epidermidis 35984 = test: MIC; assay type: cell-based; conditions: Staphylococcus epidermidis
Protocol: as §3, §2

K. pneumoniae UMM = test: MIC; assay type: cell-based; conditions: Klebsiella pneumoniae
[8] = tested on: S. aureus specific Arg ASL (anticodon stem loop) RNA oligomer interaction with programmed ribosomes; test: Fluorescence polarization assay of Arg ASL / programmed ribosome complex (HTS and dose response); assay type: binding, S. aureus Arg ASL; E. coli 70S ribosomes; conditions: 6 pt dose response, fluorescence polarization after 4 hours at 25° C., corrected for auto-fluorescence
Description: The assay requires the following materials: • Ribosomes—isolated from E. coli or S. aureus • fMet tRNA (Sigma or Chemical Block, Moscow) • mRNA (including the S-D sequence, the “box” sequence, the codon for methionine, and the codon for arginine that is specific for S. aureus, AGA, optionally with additional base pairs to the left of the S-D sequence and/or to the right of the codon for arginine) • Fluorescently labeled Arg ASL oliogomer • Buffer—HAM20,β • 384 well high binding micro titer plates (Matrix Technologies #4319, sold by Fischer Scientific as cat #50823855), or other appropriate plates for use in high throughput screening • Filtration (Sartorius Stedium 100 Kdalton VC 1042) or centrifugation for complex purification • EDTA—negative control (binding antagonist) • Neomycin—A-site binding enhancer (binding agonist)
A ribosome complex was prepared using the above materials and then purified prior to use in the assay. The prepared complex can be stored in concentrated form at −80° C. The complexes were diluted in buffer and dispensed onto plates. […] Fluorescence polarization was measured at approximately 4 hours after dispensing onto the micro-titer plates.
ASL^Arg was first heated for 2 min at 90° C. in water, after addition of 1/10 V of 10× buffer incubation continued on ice for at least 10 min. Prior to complex formation 70S ribosomes and tRNA were reactivated in buffer for 5 min at 45° C. followed by 10 min at 37° C.; mRNA was heated in buffer at 37° C. for 5 min. • (1000 μl×(2 μM E. coli 70S ribosomes+10 μM mRNA-Arg+4 μM tRNA^fmet)/HAM20,β→30 min @ 37° C.,+1000 μl×(0.2 μM neomycin+[…]))→20 min @ 37° C., overnight on ice • Final complex: (2000 pm P+2000 pm ASL)/2 ml=1 μM P+1 μM ASL HAM20,β:
Preparation of Complexes: The purified complex was diluted in ice cold HAM20,β such that the total fluorescence was approximately 2,000,000 units per 5 μL.
20 μl of the diluted complex was added to all 384 well plates (except for blank wells, which received 20 μL of HAM20 only, without complex) using Multidrop dispenser after which the plates were incubated at 25° C. for 4 hours (target 4.5 hours for middle of batch). Plates were then analyzed for fluorescence polarization in Analyst HT fluorescence plate reader and the following instrument settings:
The parallel and perpendicular fluorescence values of experimental wells were automatically corrected for the corresponding values obtained from the blank wells. The fluorescence polarization was calculated as following: P=(I−Ip)/(I+Ip), wherein Ip—is perpendicular fluorescence and I—is parallel fluorescence.
The percent of effect of experimental compounds was calculated as following: %-Inh=(P0−Pc)/(P0−P100)*100, wherein P0—is average polarization in 0%—inhibition control wells, P100—is average polarization in 100%—inhibition control wells, and Pc—is polarization in compound well.
The 3 sigma HTS hits were cherry picked and retested in 6 pt dose response format, using 3× serial dilution and the top nominal concentration of 100 uM.
The compounds were serially diluted in 10% DMSO and plated into 384 well plates (in a volume of 5 μL) to achieve the nominal final concentration raging from 100 μM to 0.4 μM. The plates received 20 μl of the diluted complex following incubation at 25° C. for 4 hours. Plates were then analyzed for fluorescence polarization as described above (see HTS section).
In parallel, the compounds were tested for auto-fluorescence. To this end, the compounds were plated (using the same dilution protocol) into 384 well plates. The plates received 20 μL of the HAM20 assay buffer only (without complex). The plates were incubated for 4 hrs and then were analyzed for fluorescence polarization as described above.

Mammalian Cell Toxicity [9] = assay type: cell-based; conditions: human, MRC5 cells
E. coli ESBL 4 = test: MIC; assay type: cell-based; conditions: Escherichia coli, ESBL4
Mammalian Cell Toxicity [10] = assay type: cell-based; conditions: mouse, 3T3 cells
[11] = ATCC29213, SA 29213, read-out: MIC
[12] = ATCC33591, SA 33591, read-out: MIC
[13] = K. pneumoniae 700603, read-out: MIC
[14] = S. pneumoniae 149389, read-out: MIC
[15] = S. pneumoniae 49619, read-out: MIC
[16] = E. faecium 134529, read-out: MIC
[17] = E. faecium 145494, read-out: MIC
[18] = E. faecalis 161651, read-out: MIC
[19] = S. epidermidis MRSE 01, read-out: MIC
[20] = E. faecalis 29212, read-out: MIC
[21] = S. epidermidis 35984, read-out: MIC
[22] = K. pneumoniae UMM, read-out: MIC

MIC (E. coli 25922; E. coli 25922, read-out: MIC) [µg/mL]	MIC ([1]; SA 2, read-out: MIC) [µg/mL]	MIC ([2]; SA 22, read-out: MIC) [µg/mL]	MIC [3, 11] [µg/mL]	MIC [4, 12] [µg/mL]	MIC ([5]; SA 158, read-out: MIC) [µg/mL]	MIC ([6]; SA USA 300, read-out: MIC) [µg/mL]	MIC ([7]; SA 182, read-out: MIC) [µg/mL]	MIC (K. pneumoniae 700603; [13]) [µg/mL]	MIC (S. pneumoniae 149389; [14]) [µg/mL]	MIC (S. pneumoniae 49619; [15]) [µg/mL]	MIC (E. faecium 134529; [16]) [µg/mL]	MIC (E. faecium 145494; [17]) [µg/mL]	MIC (E. faecalis 161651; [18]) [µg/mL]	MIC (S. epidermidis MRSE 01; [19]) [µg/mL]	MIC (E. faecalis 29212; [20]) [µg/mL]	MIC (S. epidermidis 35984; [21]) [µg/mL]	MIC (K. pneumoniae UMM; [22]) [µg/mL]	Structure (SMILES)	CC50 (Mammalian Cell Toxicity [9]) [µg/mL]	CC50 (Mammalian Cell Toxicity [10]) [µg/mL]	other results
> 128	128 (≈ 324 µM)	64 (≈ 162 µM)	64 (≈ 162 µM)	64 (≈ 162 µM)	64 (≈ 162 µM)	64 (≈ 162 µM)	64 (≈ 162 µM)	> 128	64 (≈ 162 µM)	32 (≈ 81.1 µM)	128 (≈ 324 µM)	> 128	128 (≈ 324 µM)	128 (≈ 324 µM)	128 (≈ 324 µM)	128 (≈ 324 µM)	> 128	O=C(O)C(c1ccccc1)N1C(=O)C(=Cc2c[nH]c3ccccc23)SC1=S (stereo not drawn) [Compound 537, [5-(1H-indol-3-ylmethylene)-4-oxo-2-thioxo-1,3-thiazolidin-3-yl](phenyl)acetic acid]	38 (≈ 96.3 µM)	20 to 64 (≈ 50.7 to 162 µM)	IC50 [8]: agonist; MIC (E. coli ESBL 4; E. coli ESBL 4, read-out: MIC): > 128 µg/mL
> 128	128 (≈ 328 µM)	128 (≈ 328 µM)	128 (≈ 328 µM)	> 128	128 (≈ 328 µM)	128 (≈ 328 µM)	128 (≈ 328 µM)	> 128	128 (≈ 328 µM)	32 (≈ 82 µM)	> 128	> 128	128 (≈ 328 µM)	> 128	128 (≈ 328 µM)	> 128	> 128	COc1ccc2c(c1)c(=O)oc1c(C)c(OC(C(=O)O)c3ccccc3)ccc12 (stereo not drawn) [Compound #211, [(8-methoxy-4-methyl-6-oxo-6H-benzo[c]chromen-3-yl)oxy](phenyl)acetic acid]	26 (≈ 66.6 µM)	28 (≈ 71.7 µM)	IC50 [8]: agonist; MIC (E. coli ESBL 4; E. coli ESBL 4, read-out: MIC): > 128 µg/mL
–	–	–	–	–	–	–	–	–	–	–	–	–	–	–	–	–	–	CC[n+]1c(C=CC=CN(C(C)=O)c2ccccc2)sc2ccccc21.[I-] [Compound #928, 2-{4-[acetyl(phenyl)amino]-1,3-butadien-1-yl}-3-ethyl-1,3-benzothiazol-3-ium iodide]	20 to 64	20 to 64	MIC (E. coli 25922; 25922): > 128 µg/mL; MIC [1]: 128 µg/mL; MIC [2]: 64 µg/mL; MIC ([3]; ATCC29213): 64 µg/mL; MIC ([4]; ATCC33591): 128 µg/mL; MIC [5]: 128 µg/mL; MIC [6]: 64 µg/mL; MIC [7]: > 128 µg/mL; MIC (K. pneumoniae 700603; 700603): > 128 µg/mL; MIC (S. pneumoniae 149389; 149389): > 128 µg/mL; MIC (S. pneumoniae 49619; 49619): > 128 µg/mL; MIC (E. faecium 134529; 134529): 128 µg/mL; MIC (E. faecium 145494; 145494): 128 µg/mL; MIC (E. faecalis 161651; 161651): 128 µg/mL; MIC (S. epidermidis MRSE 01; MRSE): 64 µg/mL; MIC (E. faecalis 29212; 29212): 128 µg/mL; MIC (S. epidermidis 35984; 35984): 128 µg/mL; MIC (K. pneumoniae UMM): > 128 µg/mL; IC50 [8]: agonist; MIC (E. coli ESBL 4): > 128 µg/mL
> 128	32 (≈ 112 µM)	32 (≈ 112 µM)	64 (≈ 224 µM)	128 (≈ 449 µM)	128 (≈ 449 µM)	128 (≈ 449 µM)	128 (≈ 449 µM)	> 128	> 128	> 128	64 (≈ 224 µM)	> 128	128 (≈ 449 µM)	64 (≈ 224 µM)	128 (≈ 449 µM)	128 (≈ 449 µM)	> 128	CCN1C(=O)C2Cc3c([nH]c4ccccc34)CN2C1=S (stereo not drawn) [Compound #740, 2-ethyl-3-thioxo-2,3,5,6,11,11a-hexahydro-1H-imidazo[1′,5′:1,6]pyrido[3,4-b]indol-1-one]	62 (≈ 217 µM)	20 to 64 (≈ 70.1 to 224 µM)	IC50 ([8]; read-out: IC50): 44.2 µM; MIC (E. coli ESBL 4; E. coli ESBL 4, read-out: MIC): > 128 µg/mL
> 128	32 (≈ 96.8 µM)	64 (≈ 194 µM)	64 (≈ 194 µM)	> 128	128 (≈ 387 µM)	64 (≈ 194 µM)	128 (≈ 387 µM)	> 128	64 (≈ 194 µM)	64 (≈ 194 µM)	64 (≈ 194 µM)	128 (≈ 387 µM)	128 (≈ 387 µM)	128 (≈ 387 µM)	128 (≈ 387 µM)	> 128	> 128	CN1CCN(c2nc(C=Cc3ccccc3)nc3ccccc23)CC1 [Compound #096, 4-(4-methyl-1-piperazinyl)-2-(2-phenylvinyl)quinazoline]	62 (≈ 188 µM)	51.5 (≈ 156 µM)	IC50 ([8]; read-out: IC50): 91 µM; MIC (E. coli ESBL 4; E. coli ESBL 4, read-out: MIC): > 128 µg/mL
> 128	16 (≈ 41.4 µM)	16 (≈ 41.4 µM)	32 (≈ 82.8 µM)	32 (≈ 82.8 µM)	32 (≈ 82.8 µM)	128 (≈ 331 µM)	> 128	> 128	> 128	> 128	64 (≈ 166 µM)	> 128	128 (≈ 331 µM)	8 (≈ 20.7 µM)	128 (≈ 331 µM)	64 (≈ 166 µM)	> 128	Oc1ccccc1N=Cc1c(O)c(Br)cc2oc3c(c12)CCCC3 [Compound 136, 3-bromo-1-{[(2-hydroxyphenyl)imino]methyl}-6,7,8,9-tetrahydrodibenzo[b,d]furan-2-ol]	6.8 (≈ 17.6 µM)	2.3 (≈ 5.95 µM)	IC50 ([8]; read-out: IC50): 80 µM; MIC (E. coli ESBL 4; E. coli ESBL 4, read-out: MIC): > 128 µg/mL

Source: US10316371B2, “Screening methods for identifying specific Staphylococcus aureus inhibitors” (TRANA DISCOVERY, INC., priority 2011, dated 2019)
